Assay results taken from patent US20090069370A1, “AZACYCLYLISOQUINOLINONE AND ISOINDOLINONE DERIVATIVES AS HISTAMINE-3 ANTAGONISTS” (Wyeth, priority 2007, published 2009).
Structures can show the parent of a compound that is named as a salt.

| SMILES | melting point |
| --- | --- |
| COC(=O)c1ccc(Oc2ccc3c(c2)CCN(C2CCN(C4CCC4)CC2)C3=O)cc1 (as salt: hydrochloride) [Example 1, methyl 4-{[2-(1-Cyclobutylpiperidin-4-yl)-1-oxo-1,2,3,4-tetrahydroisoquinolin-6-yl]oxy}benzoate] | 269 to 270 °C |
| NC(=O)c1ccc(Oc2ccc3c(c2)CCN(C2CCN(C4CCC4)CC2)C3=O)cc1 (as salt: hydrochloride) [Example 3, 4-{[2-(1-cyclobutylpiperidin-4-yl)-1-oxo-1,2,3,4-tetrahydroiso-quinolin-6-yl]oxy}benzamide Hydrochloride] | 309 to 310 °C |
| CNC(=O)c1ccc(Oc2ccc3c(c2)CCN(C2CCN(C4CCC4)CC2)C3=O)cc1 (as salt: hydrochloride) [Example 4, 4-{[2-(1-Cyclobutylpiperidin-4-yl)-1-oxo-1,2,3,4-tetrahydroisoquinolin-6-yl]oxy}-N-methylbenzamide] | > 310 °C |
| CCNC(=O)c1ccc(Oc2ccc3c(c2)CCN(C2CCN(C4CCC4)CC2)C3=O)cc1 (as salt: hydrochloride) [Example 5, 4-{[2-(1-Cyclobutylpiperidin-4-yl)-1-oxo-1,2,3,4-tetrahydroisoquinolin-6-yl]oxy}-N-ethylbenzamide] | 317 to 318 °C |
| CC(C)NC(=O)c1ccc(Oc2ccc3c(c2)CCN(C2CCN(C4CCC4)CC2)C3=O)cc1 (as salt: hydrochloride) [Example 6, 4-{[2-(1-Cyclobutylpiperidin-4-yl)-1-oxo-1,2,3,4-tetrahydroisoquinolin-6-yl]oxy}-N-isopropylbenzamide] | 309 to 311 °C |
| O=C(NC1CC1)c1ccc(Oc2ccc3c(c2)CCN(C2CCN(C4CCC4)CC2)C3=O)cc1 (as salt: hydrochloride) [Example 7, 4-{[2-(1-Cyclobutylpiperidin-4-yl)-1-oxo-1,2,3,4-tetrahydroisoquinolin-6-yl]oxy}-N-cyclopropylbenzamide] | 307 to 309 °C |
| O=C(NC1CCC1)c1ccc(Oc2ccc3c(c2)CCN(C2CCN(C4CCC4)CC2)C3=O)cc1 (as salt: hydrochloride) [Example 8, N-Cyclobutyl-4-{[2-(1-cyclobutylpiperidin-4-yl)-1-oxo-1,2,3,4-tetrahydroisoquinolin-6-yl]oxy}benzamide] | > 300 °C |
| O=C(NC1CCCC1)c1ccc(Oc2ccc3c(c2)CCN(C2CCN(C4CCC4)CC2)C3=O)cc1 (as salt: hydrochloride) [Example 9, 4-{[2-(1-Cyclobutylpiperidin-4-yl)-1-oxo-1,2,3,4-tetrahydroisoquinolin-6-yl]oxy}-N-cyclopentylbenzamide] | > 300 °C |
| CN(C)C(=O)c1ccc(Oc2ccc3c(c2)CCN(C2CCN(C4CCC4)CC2)C3=O)cc1 (as salt: hydrochloride) [Example 10, 4-{[2-(1-Cyclobutylpiperidin-4-yl)-1-oxo-1,2,3,4-tetrahydroisoquinolin-6-yl]oxy}-N,N-dimethylbenzamide] | 262 to 264 °C |
| CCN(CC)C(=O)c1ccc(Oc2ccc3c(c2)CCN(C2CCN(C4CCC4)CC2)C3=O)cc1 (as salt: hydrochloride) [Example 11, 4-{[2-(1-Cyclobutylpiperidin-4-yl)-1-oxo-1,2,3,4-tetrahydroisoquinolin-6-yl]oxy}-N,N-diethylbenzamide] | 249 to 251 °C |
| O=C(c1ccc(Oc2ccc3c(c2)CCN(C2CCN(C4CCC4)CC2)C3=O)cc1)N1CCCC1 (as salt: hydrochloride) [Example 12, 2-(1-Cyclobutylpiperidin-4-yl)-6-[4-(pyrrolidin-1-ylcarbonyl)phenoxy]-3,4-dihydroisoquinolin-1(2H)-one] | 253 to 255 °C |
| NC(=O)c1ccc(COc2ccc3c(c2)CCN(C2CCN(C4CCC4)CC2)C3=O)cc1 (as salt: hydrochloride) [Example 15, 4-({[2-(1-cyclobutylpiperidin-4-yl)-1-oxo-1,2,3,4-tetrahydroiso-quinolin-6-yl]oxy}methyl)benzamide acid hydrochloride] | 292 to 293 °C |
| CNC(=O)c1ccc(COc2ccc3c(c2)CCN(C2CCN(C4CCC4)CC2)C3=O)cc1 (as salt: hydrochloride) [Example 16, 4-({[2-(1-Cyclobutylpiperidin-4-yl)-1-oxo-1,2,3,4-tetrahydroisoquinolin-6-yl]oxy}methyl)-N-methylbenzamide] | 302 to 303 °C |
| CCNC(=O)c1ccc(COc2ccc3c(c2)CCN(C2CCN(C4CCC4)CC2)C3=O)cc1 (as salt: hydrochloride) [Example 17, 4-({[2-(1-Cyclobutylpiperidin-4-yl)-1-oxo-1,2,3,4-tetrahydroisoquinolin-6-yl]oxy}methyl)-N-ethylbenzamide] | 307 to 309 °C |
| CN(C)C(=O)c1ccc(COc2ccc3c(c2)CCN(C2CCN(C4CCC4)CC2)C3=O)cc1 (as salt: hydrochloride) [Example 18, 4-({[2-(1-Cyclobutylpiperidin-4-yl)-1-oxo-1,2,3,4-tetrahydroisoquinolin-6-yl]oxy}methyl)-N,N-dimethylbenzamide] | 292 to 294 °C |
| O=C(NC1CCC1)c1ccc(COc2ccc3c(c2)CCN(C2CCN(C4CCC4)CC2)C3=O)cc1 (as salt: hydrochloride) [Example 19, N-Cyclobutyl-4-({[2-(1-cyclobutylpiperidin-4-yl)-1-oxo-1,2,3,4-tetrahydroisoquinolin-6-yl]oxy}methyl)benzamide] | 286 to 288 °C |

| SMILES | melting point |
| --- | --- |
| O=C(c1ccc(COc2ccc3c(c2)CCN(C2CCN(C4CCC4)CC2)C3=O)cc1)N1CCCC1 (as salt: hydrochloride) [Example 20, 2-(1-Cyclobutylpiperidin-4-yl)-6-{[4-(pyrrolidin-1-ylcarbonyl)benzyl]oxy}-3,4-dihydroisoquinolin-1(2H)-one] | 284 to 286 °C |
| O=C(NC1CCCC1)c1ccc(COc2ccc3c(c2)CCN(C2CCN(C4CCC4)CC2)C3=O)cc1 (as salt: hydrochloride) [Example 21, 4-({[2-(1-Cyclobutylpiperidin-4-yl)-1-oxo-1,2,3,4-tetrahydroisoquinolin-6-yl]oxy}methyl)-N-cyclopentylbenzamide] | 289 to 291 °C |
| N#Cc1ccc(-c2ccc3c(c2)CN(C2CCNCC2)C3=O)cc1 (as salt: hydrochloride) [Example 22, 4-(1-oxo-2-piperidin-4-yl-2,3-dihydro-1H-isoindol-5-yl)benzonitrile hydrochloride] | 105 to 106 °C |
| CN1CCC(N2Cc3cc(-c4ccc(C#N)cc4)ccc3C2=O)CC1 (as salt: hydrochloride) [Example 23] | 322 to 323 °C |
| CCN1CCC(N2Cc3cc(-c4ccc(C#N)cc4)ccc3C2=O)CC1 (as salt: hydrochloride) [Example 24, 4-[2-(1-Ethylpiperidin-4-yl)-1-oxo-2,3-dihydro-1H-isoindol-5-yl]benzonitrile] | > 300 °C |
| CCCN1CCC(N2Cc3cc(-c4ccc(C#N)cc4)ccc3C2=O)CC1 (as salt: hydrochloride) [Example 25, 4-[1-Oxo-2-(1-propylpiperidin-4-yl)-2,3-dihydro-1H-isoindol-5-yl]benzonitrile] | 300 to 302 °C |
| N#Cc1ccc(-c2ccc3c(c2)CN(C2CCN(CC4CC4)CC2)C3=O)cc1 (as salt: hydrochloride) [Example 26, 4-{2-[1-(Cyclopropylmethyl)piperidin-4-yl]-1-oxo-2,3-dihydro-1H-isoindol-5-yl}benzonitrile] | 309 to 310 °C |
| N#Cc1ccc(-c2ccc3c(c2)CN(C2CCN(CC4CCCC4)CC2)C3=O)cc1 (as salt: hydrochloride) [Example 27, 4-{2-[1-(Cyclopentylmethyl)piperidin-4-yl]-1-oxo-2,3-dihydro-1H-isoindol-5-yl}benzonitrile] | > 300 °C |
| N#Cc1ccc(-c2ccc3c(c2)CN(C2CCN(C4CCC4)CC2)C3=O)cc1 (as salt: hydrochloride) [Example 28, 4-[2-(1-Cyclobutylpiperidin-4-yl)-1-oxo-2,3-dihydro-1H-isoindol-5-yl]benzonitrile] | 320 °C (dec.) |
| N#Cc1ccc(-c2ccc3c(c2)CN(C2CCN(C4CCCC4)CC2)C3=O)cc1 (as salt: hydrochloride) [Example 29, 4-[2-(1-Cyclopentylpiperidin-4-yl)-1-oxo-2,3-dihydro-1H-isoindol-5-yl]benzonitrile] | 270 °C (dec.) |
| N#Cc1ccc(-c2ccc3c(c2)CN(C2CCN(C4CCCCC4)CC2)C3=O)cc1 (as salt: hydrochloride) [Example 30, 4-[2-(1-Cyclohexylpiperidin-4-yl)-1-oxo-2,3-dihydro-1H-isoindol-5-yl]benzonitrile] | > 300 °C |
| CNC(=O)c1ccc(Oc2ccc3c(c2)CCN([C@@H]2CCN(C4CCC4)C2)C3=O)cc1 (as salt: hydrochloride) [Example 33, 4-({2-[(3R)-1-cyclobutylpyrrolidin-3-yl]-1-oxo-1,2,3,4-tetrahydroisoquinolin-6-yl}oxy)-N-methylbenzamide] | 206 to 208 °C |
| CCNC(=O)c1ccc(Oc2ccc3c(c2)CCN([C@@H]2CCN(C4CCC4)C2)C3=O)cc1 (as salt: hydrochloride) [Example 34, 4-({2-[(3R)-1-cyclobutylpyrrolidin-3-yl]-1-oxo-1,2,3,4-tetrahydroisoquinolin-6-yl}oxy)-N-ethylbenzamide] | 153 to 154 °C |
| CNC(=O)c1ccc(Oc2ccc3c(c2)CCN([C@@H]2CCN(C4CCCC4)C2)C3=O)cc1 (as salt: hydrochloride) [Example 37, 4-({2-[(3R)-1-cyclopentylpyrrolidin-3-yl]-1-oxo-1,2,3,4-tetrahydroisoquinolin-6-yl}oxy)-N-methylbenzamide] | 223 to 224 °C |
| CCNC(=O)c1ccc(Oc2ccc3c(c2)CCN([C@@H]2CCN(C4CCCC4)C2)C3=O)cc1 (as salt: hydrochloride) [Example 38, 4-({2-[(3R)-1-cyclopentylpyrrolidin-3-yl]-1-oxo-1,2,3,4-tetrahydroisoquinolin-6-yl}oxy)-N-ethylbenzamide] | 178 to 180 °C |
| CNC(=O)c1ccc(-c2ccc3c(c2)CCN([C@@H]2CCN(C4CCCC4)C2)C3=O)cc1 (as salt: hydrochloride) [Example 41, 4-{2-[(3R)-1-cyclopentylpyrrolidin-3-yl]-1-oxo-1,2,3,4-tetrahydroisoquinolin-6-yl}-N-methylbenzamide] | > 240 °C |
